Experimental data from patent US6946458B2, “N-thiolated beta-lactams: novel antibacterial agents for methicillin-resistant Staphylococcus aureus” (University of South Florida, priority 1999, dated 2005).
Read-outs that look alike come from different tables or passages of the source.

What was measured:
[1] = system: cultures of S. aureus and MRSA; assay: electron microscopy of cell morphology; type: cell-based, Staphylococcus aureus; conditions: Example 1; electron microscopy, high magnification
Description: The structure-bioactivity patterns observed for these N-thiolated lactams are highly atypical for a β-lactam antibiotic. The compounds are lipohilic and devoid of the typical acidic ring functionality required for recognition by the penicillin binding proteins. The implication that the lactams set forth in FIGS. 1A-1I are not acting in the same manner or on the same enzymes as the traditional β-lactam drugs is supported by electron microscopy experiments, which confirm that cell morphology is unaffected by the lactam of FIG. 1D (Greenwood, D. et al. Science, 1969, 163:1076).
(§1) In fact, only small isolated colonies of surviving cells can be found, all of which appear perfectly normal in size, shape, smoothness, and clustering behavior. […] Pulse radiolabeling experiments indicate that the lactam of FIG. 1D blocks the bacterial uptake of ^3H-uridine and ^3H-leucine at low (MIC) levels (Lim, D. V. et al. Microbiology, 1977, 33:328; Champney, W. S. and C. G. Tober Antimicrob. Agents and Chemother., 2000, 44:1413).
Light microscopy and scanning electron microscopy experiments have enabled us to look for cell wall damage in cultures of S. aureus and MRSA grown in the presence of N-methylthio lactam (FIG. 11F) over a range of different concentrations and cell growth conditions. […] Those cells that survive the treatment appear normal (coccal) and fully mature.

N. gonorrhoeae = assay: Kirby-Bauer agar disk diffusion; type: cell-based, Neisseria gonorrhoeae; conditions: Neisseria gonorrhoeae; Table 1; 6-mm disks, 20 μg test compound, 24 h, triplicate; β-lactamase positive; read-out: zone of growth inhibition, average diameter
Experimental: In this study, a selection of N-methylthio-substituted β-lactams are examined for antimicrobial activity by the Kirby-Bauer disk diffusion method on agar plates. A variety of common Gram-positive and Gram-negative bacteria are tested, including clinical isolates of methicillin-resistant Staphylococcus aureus (MRSA).
Compound susceptibility measurements are obtained from agar disk diffusion experiments using 6-mm air-dried disks impregnated with 20 μg of the test compound. The values correspond to the average diameters in mm (triplicate experiments) for the zone of growth inhibition observed after 24 h. Staphylococcus aureus (ATCC 25923) and β-lactamase-producing strains of methicillin-resistant Staphylococcus aureus (labeled as MRSA USF652-659) are obtained from Lakeland Regional Medical Center, Lakeland, Fla. Staphylococcus epidermidis, Staphylococcus simulans, Staphylococcus simulans, and Microcossus luteus are clinical isolates from University of South Florida Medical Clinic. Nieserria gonnorhoeae (β-lactamase positive) is obtained from the Tampa Branch State Laboratory. PenG is penicillin G (potassium salt). Table 1 provides the zones of growth inhibition that are observed after 24 hours using the lactams of FIGS. 1A-1I (designated A-I, respectively).

MRSA strains = assay: MIC by agar dilution; type: cell-based, Staphylococcus aureus; conditions: Staphylococcus aureus, MRSA, read-out: Minimum inhibitory concentration (MIC)
Description: However, the N-alkylthio substituent is required, since reduction to the N—H analogue completely destroys the biological activity.

Staph aureus 525 = assay: Kirby-Bauer agar disk diffusion; type: cell-based, Staphylococcus aureus
[2] = system: S. saprophyticus (ATCC 3552); assay: Kirby-Bauer agar disk diffusion; type: cell-based, Staphylococcus saprophyticus; conditions: 6-mm disks, 20 μg test compound
Procedure, shortened: (§2)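 Agar disk diffusion used 6-mm air-dried disks carrying 20 μg of compound. Values are mean diameters (mm) of the growth-inhibition zone at 24 h, from triplicate experiments. S. epidermidis and S. simulans were clinical isolates.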

MRSA USF653 = assay: Kirby-Bauer agar disk diffusion; type: cell-based, Staphylococcus aureus; design: Kirby-Bauer Disc Diffusion Test Results: unit not given here; conditions: for zone of inhibition at 20 µg/disc: Staphylococcus aureus, MRSA
Procedure, shortened: (§3)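 Agar disk diffusion against β-lactamase-producing MRSA clinical isolates, using 6-mm air-dried disks loaded with 20 μg test compound. Growth-inhibition zone diameter (mm) read after 24 h; values are means of triplicate experiments.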

MRSA USF655 = assay: Kirby-Bauer agar disk diffusion; type: cell-based, Staphylococcus aureus; design: Kirby-Bauer Disc Diffusion Test Results: unit not given here; conditions: for zone of inhibition at 20 µg/disc: Staphylococcus aureus, MRSA
Procedure, shortened: as §3

MRSA cells = assay: light microscopy after Gram staining; type: cell-based, Staphylococcus aureus
Description: as §1
(FIGS. 14A-14C) S. aureus is a Gram-positive microorganism, and thus reacts with Gram stain to produce a purple coloration due to binding of the stain to the peptidoglycan. 100% of MRSA cells grown either in the absence or presence of the lactam of FIG. 11F take on a purple color when Gram stained (top and center images, next page). In contrast, for MRSA cells treated with penicillin G or vancomycin (cell wall synthesis inhibitors), only about 30% of the cells are Gram-stained purple, with the remainder of the cells appearing pink (bottom image, next page) due to morphologically altered walls. This is strong evidence that the N-methylthio lactams are not affecting late stage events in cell wall biosynthesis.

S. simulans (ATCC 11631) = assay: Kirby-Bauer agar disk diffusion; type: cell-based, Staphylococcus simulans; conditions: 6-mm disks, 20 μg test compound
Procedure, shortened: as §2

[3] = Table 1, 6-mm disks, 20 μg test compound, 24 h, triplicate, read-out: zone of growth inhibition, average diameter
[4] = Table 4, 20 μg disk loading, read-out: Zones of Inhibition
[5] = Table 6, 20 μg disk loading, read-out: The Zone of Inhibition
[6] = Table 3, 6-mm disks, 20 μg test compound, 24 hours

CC1(C)S[C@@H]2[C@H](NC(=O)Cc3ccccc3)C(=O)N2[C@H]1C(=O)O [PenG, penicillin G, reference compound]
cell morphology [1]: wrinkled, deformed, or even sheared
zone of inhibition at 20 µg/disc (N. gonorrhoeae): 0 mm
MIC (MRSA strains): > 64 µg/mL
zone of inhibition at 20 µg/disc (Staph aureus 525; Staphylococcus aureus, 525, Table 4, 20 μg disk loading, read-out: Zones of Inhibition): 33 mm
Kirby-Bauer Disc Diffusion Test Results (Staph aureus 525; Table 5): 33
zone of inhibition at 20 µg/disc ([2]; Staphylococcus saprophyticus, ATCC3552, Table 1, 24 h, triplicate, read-out: zone of growth inhibition, average diameter): 30 mm
zone of growth inhibition, average diameter ([2]; Table 3, 24 hours): 30 mm
zone of inhibition at 20 µg/disc (MRSA USF653; [3]): 16 mm
zone of inhibition at 20 µg/disc (MRSA USF653; [4]): 15 mm
zone of inhibition at 20 µg/disc (MRSA USF653; [5]): 15 mm
zone of growth inhibition, average diameter (MRSA USF653; [6]): 16 mm
Kirby-Bauer Disc Diffusion Test Results (MRSA USF653; Table 5, beta-lactamase producing strain): 15
zone of inhibition at 20 µg/disc (MRSA USF655; [3]): 14 mm
zone of inhibition at 20 µg/disc (MRSA USF655; [4]): 14 mm
zone of inhibition at 20 µg/disc (MRSA USF655; [5]): 13 mm
zone of growth inhibition, average diameter (MRSA USF655; [6]): 14 mm
Kirby-Bauer Disc Diffusion Test Results (MRSA USF655; Table 5): 13
coloration upon Gram staining (MRSA cells; Example 1): pink coloration
cells Gram-stained purple (MRSA cells; Example 5, MRSA cells grown in presence of the substance): about 30%
zone of inhibition at 20 µg/disc (S. simulans (ATCC 11631); Staphylococcus simulans, ATCC11631, Table 1, 24 h, triplicate, read-out: zone of growth inhibition, average diameter): 13 mm
zone of growth inhibition, average diameter (S. simulans (ATCC 11631); Table 3, 24 hours): 13 mm
